Laboratory results published in PMC10489644, “In Vitro Evaluation of the Potential for Drug Interactions by Salidroside” (Nutrients, 2023).
“Also recorded” adds a separate entry of the source.

Tests used:
CYP2C8 = target: T1, CYP2C8 (Homo sapiens, UniProt P10632); experiment: CYP direct inhibition in human liver microsomes
T1 sequence (P10632 1-490): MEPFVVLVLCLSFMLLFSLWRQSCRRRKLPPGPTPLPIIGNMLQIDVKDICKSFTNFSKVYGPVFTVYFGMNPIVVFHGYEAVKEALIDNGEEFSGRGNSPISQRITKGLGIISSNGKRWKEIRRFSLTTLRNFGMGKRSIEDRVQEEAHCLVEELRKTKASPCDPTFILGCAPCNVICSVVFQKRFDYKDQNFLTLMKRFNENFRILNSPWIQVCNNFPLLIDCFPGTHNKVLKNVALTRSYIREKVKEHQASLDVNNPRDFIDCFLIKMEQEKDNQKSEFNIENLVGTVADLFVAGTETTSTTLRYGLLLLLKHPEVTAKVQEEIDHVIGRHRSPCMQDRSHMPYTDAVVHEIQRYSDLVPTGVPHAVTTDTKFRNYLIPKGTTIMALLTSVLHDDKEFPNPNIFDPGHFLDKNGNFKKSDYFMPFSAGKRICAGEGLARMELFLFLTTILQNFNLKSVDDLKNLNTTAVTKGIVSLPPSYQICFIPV
Experimental: (§1) Test compound/controls working solution or DMSO were added in 238.5 µL of liver microsomes working solution, mixed well by pipetting several times and pre-incubated in a 37 °C shaking water bath for 5 min. Following the pre-incubation, 60 µL of NADPH working solution were added, mixed well by pipetting several times, and incubated in a 37 °C shaking water bath for 10 min. Following the incubation, 300 µL of quenching solution were immediately added and vortexed for ~20 s to mix. All samples were centrifuged at 4000 rpm for 15 min at 4 °C and then the supernatant was transferred for LC-MS/MS analysis. IC50 values were determined by the Hill slope equation using Graph Pad Prism.
(§2) For competitive and time-dependent CYP inhibition, the peak area ratios (PAR) of analyte/internal standard were used to semi-quantitatively determine the concentration of acetaminophen (CYP1A2 activity), 4’-hydroxydiclofenac (CYP2C9), 4’-hydroxymephenytoin (CYP2C19), dextrorphan (CYP2D6), 1’-hydroxymidazolam (CYP3A4), 6β-hydroxytestosterone (CYP3A4), hydroxybupropion (CYP2B6), and N-desethylamodiaquine (CYP2C8), with terfenadine as the internal standard by LC-MS/MS method. The HPLC-MS system utilized an Acquity UPLC system and Sciex API 4000 mass spectrometer in ESI positive mode, with quantitation employing MRM. Samples were injected onto an Atlantis T3 5 μM column (2.1 x 50 mm). […]

CYP2B6 = target: T2, CYP2B6 (Homo sapiens, UniProt P20813); experiment: biochemical
T2 sequence (P20813 1-491): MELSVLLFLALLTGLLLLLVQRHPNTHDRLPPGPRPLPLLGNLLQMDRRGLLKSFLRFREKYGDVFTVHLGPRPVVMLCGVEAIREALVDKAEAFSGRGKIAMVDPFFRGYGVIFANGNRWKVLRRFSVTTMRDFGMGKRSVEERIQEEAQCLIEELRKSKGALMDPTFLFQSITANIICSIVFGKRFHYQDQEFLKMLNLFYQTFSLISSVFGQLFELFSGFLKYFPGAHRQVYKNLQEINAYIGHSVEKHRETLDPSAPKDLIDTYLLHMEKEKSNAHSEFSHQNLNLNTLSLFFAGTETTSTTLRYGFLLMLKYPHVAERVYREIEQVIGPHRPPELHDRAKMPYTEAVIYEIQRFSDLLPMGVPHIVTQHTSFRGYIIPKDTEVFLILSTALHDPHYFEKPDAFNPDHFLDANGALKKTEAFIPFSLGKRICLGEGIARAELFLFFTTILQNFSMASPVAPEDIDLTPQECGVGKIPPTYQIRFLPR
Experimental: as §1, §2

OATP1B1 = target: T3, OATP1B1 (Homo sapiens, UniProt Q9Y6L6); experiment: Uptake transport inhibition in HEK293-OATP1B1 cells
T3 sequence (Q9Y6L6 1-691): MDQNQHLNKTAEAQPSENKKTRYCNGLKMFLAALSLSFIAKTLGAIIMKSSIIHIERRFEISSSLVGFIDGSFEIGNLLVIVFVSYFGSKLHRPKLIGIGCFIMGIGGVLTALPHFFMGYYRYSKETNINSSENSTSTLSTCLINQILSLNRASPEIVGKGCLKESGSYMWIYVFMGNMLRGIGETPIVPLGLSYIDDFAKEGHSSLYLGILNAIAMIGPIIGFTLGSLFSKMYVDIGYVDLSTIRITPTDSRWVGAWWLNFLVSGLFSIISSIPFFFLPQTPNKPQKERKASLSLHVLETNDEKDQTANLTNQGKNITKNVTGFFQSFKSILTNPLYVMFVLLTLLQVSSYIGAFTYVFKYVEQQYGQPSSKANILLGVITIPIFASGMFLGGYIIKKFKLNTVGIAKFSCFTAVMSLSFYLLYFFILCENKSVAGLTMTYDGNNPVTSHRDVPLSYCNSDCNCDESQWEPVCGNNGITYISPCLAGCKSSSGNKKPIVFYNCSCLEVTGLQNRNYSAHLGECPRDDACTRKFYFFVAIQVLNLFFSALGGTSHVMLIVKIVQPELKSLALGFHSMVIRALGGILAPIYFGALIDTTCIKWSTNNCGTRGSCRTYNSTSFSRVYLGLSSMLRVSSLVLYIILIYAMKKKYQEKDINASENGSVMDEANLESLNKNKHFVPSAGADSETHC
Experimental: HEK293-OATP1B1 and OATP1B3 cells were diluted to 1 × 10^6 cells/mL with DMEM supplemented with 1% non-essential amino acid (NEAA), 10% fetal bovine serum (FBS), 1% PS solution (100 U/mL penicillin-G and 100 μg/mL streptomycin), and seeded on a 96-well BioCoat™ poly-d-lysine plate at a density of 1 × 10^6 cells/mL. […] Once the cells were anchored on the plate, the cell culture was replaced with DMEM containing 10% FBS and 1% PS solution (100 U/mL penicillin-G and 100 μg/mL streptomycin solution) and cultured one day for the uptake and inhibition studies. The cell culture medium was removed from the 96-well plate, then rinsed twice with 0.1 mL/well of pre-warmed transport buffer. The transporter cells containing pre-incubation solution were pre-incubated at 37 °C for 30 min. Then the pre-incubation solution was removed and replaced with 0.1 mL/well of dosing solution containing a substrate, respectively (blank transporter buffer containing a substrate, transport buffer containing a substrate and PC, and transport buffer containing a substrate and salidroside). Then, the transporter cells were incubated at 37 °C for 2 min. After incubation, all solutions in the cells were discarded and rinsed with 0.10 mL/well of ice-cold transport buffer (4 °C) three times. […] All samples were shaken and centrifuged at 4000 rpm at 4 °C for 15 min and the supernatant was removed for future analysis by LC-MS/MS.
Enzyme activity (%) = PAR with compound/PAR vehicle × 100.
Estradiol-17β-glucuronide (substrate) was incubated with an OATP1B1-transfected HEK293 cell monolayer in the presence or absence of salidroside at concentrations up to 100 µM.

OC[C@H]1O[C@@H](OCCc2ccc(O)cc2)[C@H](O)[C@@H](O)[C@@H]1O [Salidroside]
IC50 (CYP2C8): > 50 µM
IC50 (CYP2B6): > 50 µM
IC50 (OATP1B1): > 100 µM
activity at 2 min, 100 µM (OATP1B1; human): 84.4%
inhibition at 2 min, 100 µM (OATP1B1; human): 15.5%
mean % of control activity / inhibition of OATP1B1 (OATP1B1; up to concentrations of 33.3 mM, 33.3 µM): unchanged; also recorded: no inhibition
